Measurements published in patent US20240262835A1, “PRMT5 INHIBITING COMPOUNDS AND USES THEREOF” (ANTENGENE DISCOVERY LIMITED, priority 2023, published 2024).
pIC50: −log10 of the molar value. Like-named read-outs stand apart in the source and are kept apart here.

Experiments:
[1] = microsomes
[2] = microsomes; remark: listed apart in the source
[3] = In vivo pharmacokinetics assay in mice via IV and PO; set-up: species or system ICR mice; conditions: for Cmax / C8 h / C24 h: plasma; for Mean Concentration In brain / Mean Concentration In plasma / B/P ratio: PO (Group 4 design: 30 mg/kg); for B/P ratio: brain to plasma, one value for 2 h and 4 h
Experimental: Pharmacokinetics assay for test compounds was performed in mice via IV and PO.
Test compound solution was prepared on the day of administration.
Solvent: IV+PO: 5% DMSO+10% Soultol+85% H2O or saline
Species: ICR mice; SPF level.
Source: Beijing Vital River Laboratory Animal Technology Co., Ltd.
Animal selection: Males. No random grouping
Weighed before dosing, calculated dosage according to body weight. For Groups 1-3, the drug was administered intravenously or intragastrically. For Group 4, the drug administered intragastrically.
For Groups 1-3, at 0.083 h, 0.25 h, 0.5 h, 1 h, 2 h, 4 h, 6 h, 8 h, 24 h, after administration. For Group 4, at 2 h and 4 h after administration.
Blood was collected through the cheeks. For each sample, about 0.05 mL of blood was collected and was added heparin sodium or EDTA-2K as anticoagulant, and was placed on wet ice.
The blood samples were collected and placed on ice and was centrifuged within 1 hour (centrifugation: 6000 g, 3 minutes, 2-8° C.) to separate plasma. Plasma samples were stored in a −80° C. refrigerator prior to analysis.
The pharmacokinetic parameters were calculated using Phoenix WinNonlin8.2.0 based on the blood concentration data at different time points, and AUC0-t, AUC0-∞, MRT0-∞, Cmax, Tmax, and T1/2 and mean values and standard deviations thereof were provided.

[4] = test system: HCT116 parental (wild type) cells; assay: HCT116 cell proliferation assay (CTG), parental cells; format: cell-based, human; conditions: 6 days treatment, Cell Titer-Glo
Experimental: Control samples were analyzed in parallel.
On Day 0, 150 HCT116 parental or HCT116 homozygous MTAP knockout cells were seeded in 96-well plates in McCoy's 5A medium containing 10% fetal bovine serum and pen/strep. And the cells were incubated overnight at 37° C. and 5% CO2.
On Day 1, cells were treated with 9-point serial dilution of compound, using a top concentration of 50 μM, 1:5 serial dilution steps and, a DMSO-only control. And cells were incubated for 6 days.
On Day 7, cell viability was measured using a CTG assay Kit (Cell Titer-Glo; Promega, catalog no.: G7573) in accordance with the manufacturer's instructions. Assays plates were read on a EnVision™ Multilabel Reader using the Ultra-Sensitive luminescence model. The data were analyzed by GraphPad Prism 5.0 software, and the dose-effect curve was obtained by fitting the data using nonlinear S-curve regression, from which the IC50 value was calculated.

[5] = microsomes; remark: listed apart in the source
[6] = target: hERG potassium ion channel (Homo sapiens (Human), UniProt Q12809); assay: hERG potassium ion channel inhibition assay (automated patch-clamp, CHO-hERG cells); format: cell-based; conditions: Qpatch, highest test concentration 40.00 μM
Experimental: Drug-hERG interaction was measured by automated patch-clamp methods, with cisapride as positive control.
1.1 CHO-hERG cells were cultured in 175 cm^2 culture bottle. After the cell density grew to 60-80%, the culture medium was removed, washed with 7 mL of phosphate buffered saline (PBS), and then digested with 3 mL Detachin.
1.2 After the digestion was complete, 7 mL culture solution was added for neutralization, and then centrifuged, the clear solution was sucked, and 5 mL culture solution was added for re-suspension to ensure the cell density was 2˜5×10^6/mL.
The process of single-cell high-impedance sealing and whole-cell pattern formation was all automatically completed by Qpatch instrument. After obtaining whole-cell recording mode, the cell was pinching at −80 millivolts. Before giving a 5-second +40 millivolt depolarization stimulus, a 50-millisecond pre-voltage of −50 millivolts was given first, and then repolarized to −50 millivolts for 5 seconds. Go back to −80 millivolts. This voltage stimulation was applied every 15 seconds, recorded for 2 minutes, then extracellular fluid was given and recorded for 5 minutes, and then the administration process began. The concentration of test compound was given from the lowest test concentration for 2.5 minutes per test concentration. After continuous administration of all concentrations, the positive control 3 μM cisapride was given. At least 2 cells were tested for each concentration (n≥2).
4.1 The compound mother liquor was diluted with DMSO, and 10 μL compound stock solution was added to 20 μL DMSO solution, which was continuously 3-fold diluted to 6 DMSO-concentrations.
4.2 4 μL of test compounds in 6 DMSO-concentrations were added to 396 μL extracellular solution and were 100-fold diluted to 6 intermediate concentrations. Then, 80 μL of test compounds in 6 intermediate concentrations were added to 320 μL extracellular solution and were 5-fold diluted to the final concentration to be tested.
4.3 The highest test concentration was 40.00 μM, and six test concentrations were 40.00, 13.33, 4.44, 1.48, 0.49, 0.16 μM, respectively.
4.5 Entire dilution process for test compound preparation was performed by Bravo instrument.
The experimental data were analyzed by GraphPad Prism 5.0 software.

[7] = Liver microsome metabolic stability (LMS) assay, mouse; conditions: mouse liver microsome 0.5 mg protein/mL, 1 μM, NADPH
[8] = test system: cryopreserved hepatocytes; assay: Hepatic metabolic stability (HMS) assay, human hepatocytes; conditions: for T1/2 (hepatocytes) H / CLint (liver) H: human hepatocytes; for T1/2 (hepatocytes) H: 1 μM test compound (3 μM positive control); for CLint (liver) H: scaled to liver; for CLint (hep) H: human, hepatocytes
Experimental: 1) 10 mM test compounds were provided.
(§1) 2) 30 mM positive control stock solutions: Dissolved accurate amount of positive control compounds in dimethyl sulfoxide (DMSO).
(§2) 3) 1000× Stock Solution: Diluted 10 mM test compounds and 30 mM positive control compounds to 1 mM and 3 mM with DMSO in 96-well plates.
(§3) 4) 100× Dosing Solution: Diluted 1 mM test compounds and 3 mM positive control compounds to 100 μM and 300 μM dosing solutions with ACN.
(§4) 5) Preparation of 0.5×10^6/mL cells suspension: cryopreserved cells were thawed, isolated and suspended in Incubation Medium, then diluted with pre-warmed Incubation Medium to 0.5×10^6 cells/mL.
(§5) 6) Add 198 μL of pre-warmed cell suspensions in 96-well plates.
(§6) 7) Preparation of Quenching Plate: Transfer 125 μL of stop solution in a set of pre-labeled 96-well plates.
(§7) 8) Spike 2 μL dosing solution to each well of 96-well plates in duplicate.
(§8) 9) For TO Samples, mix to achieve a homogenous suspension for about 1 min, then immediately transfer 25 μL of each sample into well containing 125 μL of ice-cold stop solution followed by mixing.
(§9) 10) Incubate all plates at 37° C. in a 95% humidified incubator at 5% CO2 to start the reactions with constant shaking.
(§10) 11) At 15, 30, 60 and 90 min, mix samples and then transfer 25 μL of each sample at each time point to well containing 125 μL of ice-cold stop solution followed by mixing.
(§11) 12) Medium Control (MC) sample plates (labeled as TO-MC and T90-MC) are prepared in the same way as cell incubation except that medium was used instead of cell suspension.
(§12) 13) At each corresponding time point, stop the reactions by removing the plates from incubator and mixing with 125 μL of ice-cold stop solution.
(§13) 14) Vortex the plates immediately on a plate shaker at 600 rpm for 10 minutes. Then, centrifuge all sample plates at 3220×g for 20 min at 4° C.
(§14) 15) After centrifugation, 80 μL/well of supernatant in the sample plates are transferred to another set of pre-labeled 96-well plates which containing 240 μL of ultra pure water according to the plate map.
(§15) 16) Analytical plates are sealed and store at 4° C. until LC-MS/MS analysis.
(§16) The remaining percents of test articles after incubation were calculated by the follow equations:
(§17) Use the following equation of first order kinetics to calculate T1/2 and CLint:

[9] = test system: cryopreserved hepatocytes; assay: Hepatic metabolic stability (HMS) assay, mouse hepatocytes; conditions: for T1/2 (hepatocytes) M / CLint (liver) M: mouse hepatocytes; for T1/2 (hepatocytes) M: 1 μM test compound (3 μM positive control); for CLint (liver) M: scaled to liver; for CLint (hep) M: mouse, hepatocytes
Experimental: 1) 10 mM test compounds were provided.
as §1, §2, §3, §4, §5, §6, §7, §8, §9, §10, §11, §12, §13, §14, §15, §16, §17

[10] = test system: cryopreserved hepatocytes; assay: Hepatic metabolic stability (HMS) assay, dog hepatocytes; conditions: for T1/2 (hepatocytes) D / CLint (liver) D: dog hepatocytes; for T1/2 (hepatocytes) D: 1 μM test compound (3 μM positive control); for CLint (liver) D: scaled to liver; for CLint (hep) D: dog, hepatocytes
Experimental: 1) 10 mM test compounds were provided.
as §1, §2, §3, §4, §5, §6, §7, §8, §9, §10, §11, §12, §13, §14, §15, §16, §17

[11] = test system: cryopreserved hepatocytes; assay: Hepatic metabolic stability (HMS) assay, rat hepatocytes; conditions: for T1/2 (hepatocytes) R / CLint (liver) R: rat hepatocytes; for T1/2 (hepatocytes) R: 1 μM test compound (3 μM positive control); for CLint (liver) R: scaled to liver; for CLint (hep) R: rat, hepatocytes
Experimental: 1) 10 mM test compounds were provided.
as §1, §2, §3, §4, §5, §6, §7, §8, §9, §10, §11, §12, §13, §14, §15, §16, §17

hERG potassium ion channel, sequence (Q12809 whole entry): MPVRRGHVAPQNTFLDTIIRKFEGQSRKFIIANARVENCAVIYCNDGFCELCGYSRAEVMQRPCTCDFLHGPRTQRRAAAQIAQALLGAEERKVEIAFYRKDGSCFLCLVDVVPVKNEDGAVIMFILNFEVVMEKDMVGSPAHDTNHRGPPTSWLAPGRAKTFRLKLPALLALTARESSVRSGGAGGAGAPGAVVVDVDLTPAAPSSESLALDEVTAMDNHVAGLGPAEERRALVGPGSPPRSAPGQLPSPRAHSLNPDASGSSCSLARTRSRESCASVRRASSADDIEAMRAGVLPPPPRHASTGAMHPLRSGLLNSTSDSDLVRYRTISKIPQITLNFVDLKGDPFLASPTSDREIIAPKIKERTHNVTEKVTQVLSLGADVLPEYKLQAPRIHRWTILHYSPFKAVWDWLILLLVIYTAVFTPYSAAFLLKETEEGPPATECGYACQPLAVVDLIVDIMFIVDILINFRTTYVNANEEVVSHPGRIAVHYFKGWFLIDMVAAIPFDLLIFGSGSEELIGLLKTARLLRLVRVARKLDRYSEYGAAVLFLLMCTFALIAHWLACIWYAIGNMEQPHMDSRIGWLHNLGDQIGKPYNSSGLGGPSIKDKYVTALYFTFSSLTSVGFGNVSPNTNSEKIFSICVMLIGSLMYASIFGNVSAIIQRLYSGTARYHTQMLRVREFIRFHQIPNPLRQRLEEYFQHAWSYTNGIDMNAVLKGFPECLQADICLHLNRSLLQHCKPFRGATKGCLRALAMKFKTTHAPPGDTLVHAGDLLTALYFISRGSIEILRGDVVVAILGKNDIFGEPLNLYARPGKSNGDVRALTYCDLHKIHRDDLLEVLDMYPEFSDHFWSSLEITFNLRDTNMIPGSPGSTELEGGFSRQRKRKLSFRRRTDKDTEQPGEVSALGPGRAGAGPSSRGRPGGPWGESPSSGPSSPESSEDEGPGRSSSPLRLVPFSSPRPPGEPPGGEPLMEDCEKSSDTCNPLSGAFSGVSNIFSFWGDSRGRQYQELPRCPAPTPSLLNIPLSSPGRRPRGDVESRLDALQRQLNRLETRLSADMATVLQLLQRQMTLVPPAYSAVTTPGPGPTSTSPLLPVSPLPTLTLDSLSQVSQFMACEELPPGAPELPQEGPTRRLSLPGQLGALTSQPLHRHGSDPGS

CN(C(=O)c1ccc2nc(N)c3cncn3c2c1)C1COc2cc(C(F)(F)F)ccc21 (stereo not shown) [Compound 17]
T1/2 of LMS, D ([1]; dog): >2.42 h
T1/2 of LMS, C ([2]; cynomolgus monkey): 1.07 h
AUC0-t ([3]; IV 1.0 mg/kg): 5219 ng·h/mL
Cl ([3]; IV 1.0 mg/kg): 3.10 mL/min/kg
T1/2 ([3]; IV 1.0 mg/kg): 5.05 h
Cmax ([3]; IV 1.0 mg/kg): 965 ng/mL
AUC0-t ([3]; PO 10 mg/kg): 50800 ng·h/mL
T1/2 ([3]; PO 10 mg/kg): 5.07 h
C8 h ([3]; PO 10 mg/kg): 2287 ng/mL
C24 h ([3]; PO 10 mg/kg): 257 ng/mL
Cmax ([3]; PO 10 mg/kg): 4627 ng/mL
AUC0-t ([3]; PO 30 mg/kg): 174589 ng·h/mL
T1/2 ([3]; PO 30 mg/kg): 4.87 h
C8 h ([3]; PO 30 mg/kg): 8260 ng/mL
C24 h ([3]; PO 30 mg/kg): 860 ng/mL
Cmax ([3]; PO 30 mg/kg): 16233 ng/mL
Mean Concentration In brain ([3]; 2 h): 3308 ± 1056 ng/g
Mean Concentration In plasma ([3]; 2 h): 14843 ± 4945 ng/mL
Mean Concentration In brain ([3]; 4 h): 2668 ± 224 ng/g
Mean Concentration In plasma ([3]; 4 h): 13667 ± 1365 ng/mL
B/P ratio [3]: 21%
pIC50 [4]: 5.39
T1/2 of LMS, H ([5]; human): >2.42 h
T1/2 of LMS, R (rat, microsomes): >2.42 h
pIC50 [6]: 4.89

CN(C(=O)c1cc2c(cn1)nc(N)c1cncn12)C1COc2cc(C(F)(F)F)ccc21 (stereo not shown) [Compound 19]
CLint (mic) D ([1]; dog): <9.6 µL/min/mg
T1/2 of LMS, D ([1]; dog): >2.42 h
CLint (liver) D [1]: <13.8 mL/min/kg
CLint (mic) C ([2]; cynomolgus monkey): <9.6 µL/min/mg
T1/2 of LMS, C ([2]; cynomolgus monkey): >2.42 h
CLint (liver) C [2]: <13.0 mL/min/kg
T1/2 of LMS, M [7]: 2 h
T1/2 (hepatocytes) H [8]: >3.613 h
CLint (liver) H [8]: <17.8 mL/min/kg
CLint (hep) H [8]: <6.4 μL/min/10^6
T1/2 (hepatocytes) M [9]: 2.35 h
CLint (liver) M [9]: 116.7 mL/min/kg
CLint (hep) M [9]: 9.8 μL/min/10^6
T1/2 (hepatocytes) D [10]: >3.613 h
CLint (liver) D [10]: <44 mL/min/kg
CLint (hep) D [10]: <6.4 μL/min/10^6
Cl ([3]; IV 1.0 mg/kg): 4.38 mL/min/kg
AUC0-t ([3]; PO 10 mg/kg): 32782 ng·h/mL
T1/2 ([3]; PO 10 mg/kg): 4.88 h
C8 h ([3]; PO 10 mg/kg): 1833 ng/mL
C24 h ([3]; PO 10 mg/kg): 178 ng/mL
Cmax ([3]; PO 10 mg/kg): 2620 ng/mL
AUC0-t ([3]; PO 30 mg/kg): 94249 ng·h/mL
T1/2 ([3]; PO 30 mg/kg): 5.26 h
C8 h ([3]; PO 30 mg/kg): 4817 ng/mL
C24 h ([3]; PO 30 mg/kg): 540 ng/mL
Cmax ([3]; PO 30 mg/kg): 8117 ng/mL
T1/2 (hepatocytes) R [11]: 2.443 h
CLint (liver) R [11]: 44.3 mL/min/kg
CLint (hep) R [11]: 9.5 μL/min/10^6
pIC50 [4]: 5.51
CLint (mic) H ([5]; human): <9.6 µL/min/mg
T1/2 of LMS, H ([5]; human): >2.42 h
CLint (liver) H [5]: <8.6 mL/min/kg
CLint (liver) R (microsomes): <17.3 mL/min/kg
CLint (mic) R (rat, microsomes): <9.6 µL/min/mg
T1/2 of LMS, R (rat, microsomes): >2.42 h
pIC50 [6]: 4.87

CN(C(=O)c1cc2c(cn1)nc(N)c1cncn12)C1CC(F)(F)c2cc(C(F)(F)F)ccc21 (stereo not shown) [Compound 24]
T1/2 of LMS, M [7]: >2.42 h
T1/2 (hepatocytes) H [8]: >3.613 h
CLint (liver) H [8]: <17.8 mL/min/kg
CLint (hep) H [8]: <6.4 μL/min/10^6
T1/2 (hepatocytes) M [9]: 1.27 h
CLint (liver) M [9]: 216.4 mL/min/kg
CLint (hep) M [9]: 18.2 μL/min/10^6
T1/2 (hepatocytes) D [10]: 3.577 h
CLint (liver) D [10]: 44.4 mL/min/kg
CLint (hep) D [10]: 6.5 μL/min/10^6
Cl ([3]; IV 1.0 mg/kg): 2.41 mL/min/kg
AUC0-t ([3]; PO 10 mg/kg): 44942 ng·h/mL
T1/2 ([3]; PO 10 mg/kg): 4.41 h
C8 h ([3]; PO 10 mg/kg): 2598 ng/mL
C24 h ([3]; PO 10 mg/kg): 186 ng/mL
Cmax ([3]; PO 10 mg/kg): 3355 ng/mL
AUC0-t ([3]; PO 50 mg/kg): 130284 ng·h/mL
T1/2 ([3]; PO 50 mg/kg): 3.23 h
C8 h ([3]; PO 50 mg/kg): 4983 ng/mL
C24 h ([3]; PO 50 mg/kg): 178 ng/mL
Cmax ([3]; PO 50 mg/kg): 15733 ng/mL
Mean Concentration In brain ([3]; 2 h): 3132 ± 1647 ng/g
Mean Concentration In plasma ([3]; 2 h): 6327 ± 2604 ng/mL
Mean Concentration In brain ([3]; 4 h): 3084 ± 145 ng/g
Mean Concentration In plasma ([3]; 4 h): 5983 ± 361 ng/mL
B/P ratio [3]: 51%
T1/2 (hepatocytes) R [11]: 1.797 h
CLint (liver) R [11]: 60.2 mL/min/kg
CLint (hep) R [11]: 12.9 μL/min/10^6
pIC50 [4]: 5.41
CLint (mic) R (rat liver microsome): <9.6 µL/min/mg
T1/2 of LMS, R (rat liver microsome 0.5 mg protein/mL, 1 μM, NADPH): >2.42 h
CLint (liver) R (rat liver microsome, scaled to liver): <17.3 mL/min/kg
pIC50 [6]: 4.61
